Like-named read-outs stand apart in the source and are kept apart here.
What was measured:
in vitro [1] = type: cell-based; details: human
Description: (§1) The cytotoxicity of SB107 was determined by measuring […], THP-1, HepG2, and HK-2 cell viability after 3 days in the presence of SB107 in a 384-well plate format. SB107 was prepared as 10-point serial dilutions in DMSO, with the highest concentration at 30 μM. Assay plates were incubated for 3 days at 37° C., 5% CO2 and relative luminescent units (RLU) were measured using the CellTiter-Glo® Luminescent Cell Viability Assay. The dose response curve was fitted using the Levenberg-Marquardt algorithm.

[2] = system: M. tuberculosis constitutively expressing the luxABCDE operon; assay: microbe, parasite or virus in culture; type: cell-based
M. tuberculosis = assay: Minimum Bactericidal Concentration (MBC); type: cell-based; details: Mycobacterium tuberculosis; INH with 60 μM 107; read-out: MBC of INH
in vitro [3] = details: both, human, microsomes, pH 7.4
in vitro [4] = type: cell-based; details: human; remark: listed apart in the source
Description: as §1

in vitro [5] = type: cell-based; details: human; remark: listed apart in the source
Description: as §1

[6] = Pharmacokinetics and bioavailability in plasma; details: male, CD-1, mouse
hERG = molecular target: T1, hERG (Homo sapiens, UniProt Q12809); assay: hERG assay (hERG currents in HEK 293 cells); type: cell-based
T1 construct: expressed in transfected cells
T1 sequence (Q12809 whole entry): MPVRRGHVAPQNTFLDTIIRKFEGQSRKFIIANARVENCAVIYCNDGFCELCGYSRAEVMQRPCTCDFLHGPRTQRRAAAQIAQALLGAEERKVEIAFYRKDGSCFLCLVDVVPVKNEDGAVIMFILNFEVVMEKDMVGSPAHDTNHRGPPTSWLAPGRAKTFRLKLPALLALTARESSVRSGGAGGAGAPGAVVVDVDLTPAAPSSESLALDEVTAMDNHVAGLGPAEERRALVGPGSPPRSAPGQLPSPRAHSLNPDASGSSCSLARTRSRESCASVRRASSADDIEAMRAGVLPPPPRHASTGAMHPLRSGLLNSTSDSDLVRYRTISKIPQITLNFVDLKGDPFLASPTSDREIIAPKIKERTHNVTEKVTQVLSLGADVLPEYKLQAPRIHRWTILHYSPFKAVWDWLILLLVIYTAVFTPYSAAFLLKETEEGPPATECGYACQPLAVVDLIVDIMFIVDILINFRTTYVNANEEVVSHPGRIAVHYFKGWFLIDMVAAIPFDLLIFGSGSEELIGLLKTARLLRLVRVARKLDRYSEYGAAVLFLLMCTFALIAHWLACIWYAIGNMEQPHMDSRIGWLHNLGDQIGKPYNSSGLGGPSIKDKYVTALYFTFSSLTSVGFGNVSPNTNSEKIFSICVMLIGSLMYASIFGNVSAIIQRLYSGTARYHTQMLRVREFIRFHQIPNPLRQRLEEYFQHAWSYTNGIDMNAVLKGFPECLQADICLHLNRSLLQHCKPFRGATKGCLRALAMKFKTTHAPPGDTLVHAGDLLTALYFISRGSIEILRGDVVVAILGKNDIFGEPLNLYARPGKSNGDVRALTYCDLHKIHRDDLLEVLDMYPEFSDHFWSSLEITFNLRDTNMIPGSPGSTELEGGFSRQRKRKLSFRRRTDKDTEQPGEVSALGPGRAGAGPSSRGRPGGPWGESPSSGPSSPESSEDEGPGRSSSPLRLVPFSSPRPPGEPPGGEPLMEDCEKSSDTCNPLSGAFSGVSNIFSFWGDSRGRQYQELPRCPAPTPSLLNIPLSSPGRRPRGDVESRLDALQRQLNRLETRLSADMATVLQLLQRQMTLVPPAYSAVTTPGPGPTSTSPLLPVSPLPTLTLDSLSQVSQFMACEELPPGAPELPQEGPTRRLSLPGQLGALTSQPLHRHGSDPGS
Description: hERG stably expressed HEK 293 cells were seeded at 5×10^5 cells/per 6 cm cell culture dish and induced with doxycycline at 1 μg/mL for 48 hours. Compound at the final concentrations of 30, 10, 3.33, 1.11 and 0.37 μM was applied to the cells accumulatively, post-compound hERG currents were recorded, and IC50 was calculated. Dofetilide was used as a positive control.
To predict the potential cardiotoxic effects of 6-azastroids, human ether-a-go-go related gene (hERG) assay was applied to 100, 107 and 114 (Table 9). Cytotoxicity of 107 was also assessed (Table 10).

in vivo [7] = details: male, CD-1, mouse
CYP2C9 = molecular target: T2, CYP2C9 (Homo sapiens, UniProt P11712); assay: in vitro; type: in vitro ADME; details: both sexes, microsomes, read-out: % Inhibition 2C9
T2 construct: using pooled male and female human liver microsomes; from tissue; host or cells: pooled human liver microsomes
T2 sequence (P11712 whole entry): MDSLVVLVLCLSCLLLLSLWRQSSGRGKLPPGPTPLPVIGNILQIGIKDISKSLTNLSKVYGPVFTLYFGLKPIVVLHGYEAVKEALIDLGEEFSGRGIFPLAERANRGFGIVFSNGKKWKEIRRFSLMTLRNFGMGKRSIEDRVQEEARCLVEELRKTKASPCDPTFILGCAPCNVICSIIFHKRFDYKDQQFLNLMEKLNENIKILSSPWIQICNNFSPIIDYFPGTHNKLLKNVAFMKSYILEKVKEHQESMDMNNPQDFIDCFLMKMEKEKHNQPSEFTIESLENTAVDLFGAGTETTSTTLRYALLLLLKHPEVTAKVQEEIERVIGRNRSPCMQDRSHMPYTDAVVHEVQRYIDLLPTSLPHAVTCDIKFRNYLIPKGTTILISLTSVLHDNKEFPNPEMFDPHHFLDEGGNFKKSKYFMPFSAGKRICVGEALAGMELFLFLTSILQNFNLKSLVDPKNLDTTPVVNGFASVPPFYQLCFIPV
Description: (§2) The potential for inhibtion of CYP enzymes (CYP1A2, CYP2A6, CYP2B6, CYP2C8, CYP2C9, CYP2C19, CYP2D6, CYP2E1 and CYP3A4) by 107 at 10 μM were using pooled male and female human liver microsomes, Freshly plated human microsomes with substrate to each CYP enzyme was treated with 107 for 5-20 min. The concentrations of marker metabolites of known substrates were determined by LCMS analysis.
(§3) The inhibition of CYP enzymes by 107 was evaluated in human liver microsomes (Table 11).

CYP2C8 = molecular target: T3, CYP2C8 (Homo sapiens, UniProt P10632); assay: in vitro; type: in vitro ADME; details: both sexes, microsomes, read-out: % Inhibition 2C8
T3 construct: using pooled male and female human liver microsomes; from tissue; host or cells: pooled human liver microsomes
Description: as §2, §3

CYP2A6 = molecular target: T4, CYP2A6 (Homo sapiens, UniProt P11509); assay: in vitro; type: in vitro ADME; details: both sexes, microsomes, read-out: % Inhibition 2A6
T4 construct: using pooled male and female human liver microsomes; from tissue; host or cells: pooled human liver microsomes
T4 sequence (P11509 whole entry): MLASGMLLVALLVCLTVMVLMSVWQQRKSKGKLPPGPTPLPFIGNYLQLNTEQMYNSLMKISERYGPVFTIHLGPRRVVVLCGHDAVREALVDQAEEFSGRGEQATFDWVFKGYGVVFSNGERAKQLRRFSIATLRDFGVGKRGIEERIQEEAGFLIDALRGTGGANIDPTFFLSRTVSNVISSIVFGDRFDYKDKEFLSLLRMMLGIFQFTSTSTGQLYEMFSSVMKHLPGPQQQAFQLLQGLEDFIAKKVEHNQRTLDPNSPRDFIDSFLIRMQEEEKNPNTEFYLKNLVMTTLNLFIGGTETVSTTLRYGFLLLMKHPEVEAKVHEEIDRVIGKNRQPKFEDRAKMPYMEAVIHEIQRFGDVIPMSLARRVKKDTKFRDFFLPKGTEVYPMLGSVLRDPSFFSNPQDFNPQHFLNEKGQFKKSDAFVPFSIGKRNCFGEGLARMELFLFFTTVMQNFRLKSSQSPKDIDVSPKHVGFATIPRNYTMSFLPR
Description: as §2, §3

CYP2E1 = molecular target: T5, CYP2E1 (Homo sapiens, UniProt P05181); assay: in vitro; type: in vitro ADME; details: both sexes, microsomes, read-out: % Inhibition 2E1
T5 construct: using pooled male and female human liver microsomes; from tissue; host or cells: pooled human liver microsomes
T5 sequence (P05181 whole entry): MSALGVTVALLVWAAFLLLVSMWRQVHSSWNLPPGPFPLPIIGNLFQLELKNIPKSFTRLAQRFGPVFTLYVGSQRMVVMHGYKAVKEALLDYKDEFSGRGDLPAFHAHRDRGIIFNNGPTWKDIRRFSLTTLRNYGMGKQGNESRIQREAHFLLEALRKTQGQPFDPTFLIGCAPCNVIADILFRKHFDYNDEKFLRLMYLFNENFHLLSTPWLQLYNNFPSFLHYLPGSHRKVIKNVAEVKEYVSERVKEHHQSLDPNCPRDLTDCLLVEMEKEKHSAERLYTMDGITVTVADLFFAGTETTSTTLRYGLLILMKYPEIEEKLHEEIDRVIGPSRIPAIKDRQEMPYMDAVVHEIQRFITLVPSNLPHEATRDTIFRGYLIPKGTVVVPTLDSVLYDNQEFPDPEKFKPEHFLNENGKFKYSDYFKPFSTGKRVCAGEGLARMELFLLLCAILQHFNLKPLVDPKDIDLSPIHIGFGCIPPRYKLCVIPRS
Description: as §2, §3

CYP2C19 = molecular target: T6, CYP2C19 (Homo sapiens, UniProt P33261); assay: in vitro; type: in vitro ADME; details: both sexes, microsomes, read-out: % Inhibition 2C19
T6 construct: using pooled male and female human liver microsomes; from tissue; host or cells: pooled human liver microsomes
Description: as §2, §3

CYP1A2 = molecular target: T7, CYP1A2 (Homo sapiens, UniProt P05177); assay: in vitro; type: in vitro ADME; details: both sexes, microsomes, read-out: % Inhibition 1A2
T7 construct: using pooled male and female human liver microsomes; from tissue; host or cells: pooled human liver microsomes
T7 sequence (P05177 whole entry): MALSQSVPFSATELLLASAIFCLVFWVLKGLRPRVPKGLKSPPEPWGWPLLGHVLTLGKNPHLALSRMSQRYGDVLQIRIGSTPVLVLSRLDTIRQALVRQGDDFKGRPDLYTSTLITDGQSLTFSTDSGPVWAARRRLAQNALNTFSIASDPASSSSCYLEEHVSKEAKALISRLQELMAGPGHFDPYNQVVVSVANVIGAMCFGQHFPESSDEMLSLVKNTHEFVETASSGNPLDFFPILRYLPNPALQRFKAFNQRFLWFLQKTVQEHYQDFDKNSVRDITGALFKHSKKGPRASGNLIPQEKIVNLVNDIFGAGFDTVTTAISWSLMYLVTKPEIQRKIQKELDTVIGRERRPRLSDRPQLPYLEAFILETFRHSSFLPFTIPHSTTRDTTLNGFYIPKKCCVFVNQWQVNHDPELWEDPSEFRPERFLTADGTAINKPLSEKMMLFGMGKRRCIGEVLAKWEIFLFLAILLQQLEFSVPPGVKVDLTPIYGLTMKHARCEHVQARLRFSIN
Description: as §2, §3

CYP2D6 = molecular target: T8, CYP2D6 (Homo sapiens, UniProt P10635); assay: in vitro; type: in vitro ADME; details: both sexes, microsomes, read-out: % Inhibition 2D6
T8 construct: using pooled male and female human liver microsomes; from tissue; host or cells: pooled human liver microsomes
T8 sequence (P10635 whole entry): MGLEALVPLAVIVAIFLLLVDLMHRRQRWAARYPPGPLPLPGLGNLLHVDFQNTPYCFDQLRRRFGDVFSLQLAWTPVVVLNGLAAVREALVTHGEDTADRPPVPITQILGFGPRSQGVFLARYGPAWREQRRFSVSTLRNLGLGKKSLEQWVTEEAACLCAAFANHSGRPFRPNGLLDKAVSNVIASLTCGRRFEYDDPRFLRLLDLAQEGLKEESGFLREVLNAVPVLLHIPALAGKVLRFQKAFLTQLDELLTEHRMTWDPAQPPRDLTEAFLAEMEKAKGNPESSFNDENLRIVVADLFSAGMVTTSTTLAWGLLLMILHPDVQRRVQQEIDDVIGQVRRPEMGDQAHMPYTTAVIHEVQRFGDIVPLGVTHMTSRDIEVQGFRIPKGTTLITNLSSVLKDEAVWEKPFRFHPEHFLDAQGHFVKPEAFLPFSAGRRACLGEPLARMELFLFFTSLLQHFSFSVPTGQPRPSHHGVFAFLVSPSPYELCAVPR
Description: as §2, §3

CYP2B6 = molecular target: T9, CYP2B6 (Homo sapiens, UniProt P20813); assay: in vitro; type: in vitro ADME; details: both sexes, microsomes, read-out: % Inhibition 2B6
T9 construct: using pooled male and female human liver microsomes; from tissue; host or cells: pooled human liver microsomes
T9 sequence (P20813 whole entry): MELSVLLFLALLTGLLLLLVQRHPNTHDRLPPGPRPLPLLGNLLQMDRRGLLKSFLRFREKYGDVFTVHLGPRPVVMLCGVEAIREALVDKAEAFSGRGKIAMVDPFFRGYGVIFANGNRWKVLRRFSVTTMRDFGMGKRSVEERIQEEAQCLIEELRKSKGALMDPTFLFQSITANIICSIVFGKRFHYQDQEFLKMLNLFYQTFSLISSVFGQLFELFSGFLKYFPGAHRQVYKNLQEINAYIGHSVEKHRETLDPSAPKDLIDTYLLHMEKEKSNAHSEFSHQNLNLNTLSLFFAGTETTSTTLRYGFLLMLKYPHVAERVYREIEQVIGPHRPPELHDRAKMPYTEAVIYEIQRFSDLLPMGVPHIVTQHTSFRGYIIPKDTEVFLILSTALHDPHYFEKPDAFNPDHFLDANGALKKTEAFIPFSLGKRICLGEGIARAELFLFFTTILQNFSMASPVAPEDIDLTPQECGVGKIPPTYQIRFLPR
Description: as §2, §3

[8] = both, human, microsomes, 2 μM, pH 7.4
in vitro [9] = type: in vitro ADME; details: human
Description: (§4) Caco-2 cells were diluted to 6.86×10^6 cells/mL, dispensed into a 96-well HTS Transwell plate, and cultured for 14 to 18 days. 6-azasteroids at 5 μM was incubated at 37° C. for 2 hours with the Caco-2 cell monolayer in HBSS buffer (10 mM HEPES, pH 7.4) containing 5% BSA. Aliquots from donor sides (apical compartment for Ap→Bl flux, and basolateral compartment for Bl→Ap) and receiver sides (basolateral compartment for Ap→Bl flux, and apical compartment for Bl→Ap) were separated and extracted by acetonitrile or methanol containing appropriate internal standards (IS). The concentration of 6-azasteroid was determined by LC-MS/MS analysis.
(§5) Elution rate: 0.65 mL/min.
(§6) To predict absorption via oral administration, Caco-2 bidirectional permeability assay was performed (Table 8).

Caco-2 cell line = assay: in vitro; type: in vitro ADME; details: human, Caco-2, 2 h, 5 μM, pH 7.4
Description: as §4, §5, §6

CYP3A4 = molecular target: T10, CYP3A4 (Homo sapiens, UniProt P08684); assay: Inhibition of CYPs in human liver microsomes, CYP3A4; type: in vitro ADME; details: for inhibition at 10 µM: both sexes, human, microsomes
T10 construct: using pooled male and female human liver microsomes; from tissue; host or cells: pooled human liver microsomes
T10 sequence (P08684 whole entry): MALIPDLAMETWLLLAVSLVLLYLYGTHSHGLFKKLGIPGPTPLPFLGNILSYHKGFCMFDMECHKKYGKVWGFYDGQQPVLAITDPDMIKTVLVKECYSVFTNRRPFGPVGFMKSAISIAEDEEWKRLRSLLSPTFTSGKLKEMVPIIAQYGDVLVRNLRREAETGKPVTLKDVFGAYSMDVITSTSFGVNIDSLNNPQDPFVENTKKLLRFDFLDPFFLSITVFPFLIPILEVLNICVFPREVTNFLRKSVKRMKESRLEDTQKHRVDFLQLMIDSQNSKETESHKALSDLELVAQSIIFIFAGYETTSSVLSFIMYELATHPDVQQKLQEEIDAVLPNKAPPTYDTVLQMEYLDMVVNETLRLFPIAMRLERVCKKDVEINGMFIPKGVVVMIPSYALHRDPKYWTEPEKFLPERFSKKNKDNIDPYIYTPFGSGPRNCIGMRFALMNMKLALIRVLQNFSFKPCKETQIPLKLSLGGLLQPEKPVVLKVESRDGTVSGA
Description: as §2, §3

[10] = Metabolic stability in human liver microsomes; details: both, pH 7.4
in vitro [11] = type: cell-based; details: human; remark: listed apart in the source
Description: as §1

in vivo [12] = details: male, CD-1, mouse; remark: listed apart in the source
Mtb = assay: Isoniazid MIC shift on Mtb MIC plates (broth microdilution MIC); type: cell-based, M. tuberculosis

COc1nc(OC(F)(F)F)c(NC(=O)C2CCC3C4CN(C(=O)OC(C)(C)C)C5=CC(=O)CC[C@]5(C)C4CC[C@]23C)cc1Br (stereo partly drawn) [Compound 107]
IC50 at 3 days (in vitro [1]): > 30 µM
MIC ([2]; Mycobacterium tuberculosis, INH with 15 μM 6-azasteroid, read-out: LORA MIC of INH): 0.75 µM
activity under low oxygen conditions ([2]; in combination with isoniazid): active
MBC (M. tuberculosis): 3 µM
CLint scaled at 2 μM (in vitro [3]): 18.8 mL/min/kg
microsomal CLint at 2 μM (in vitro [3]): 15 µL/min/mg
IC50 at 3 days (in vitro [4]): > 30 µM
IC50 at 3 days (in vitro [5]): > 30 µM
half-life ([6]; iv, 1 mg/kg): 405 min
half-life ([6]; po, 5 mg/kg): 299 min
hERG inhibition (hERG; at 30 μM): No hERG inhibition was observed
IC50 (hERG; hERG stably expressed HEK 293 cells): > 30 µM
inhibition at 30 mM (hERG; human, HEK 293 cells stably expressing hERG, at 30 mM): 34.1%
Tmax (in vivo [7]; iv, 1 mg/kg): 5 min
Tmax (in vivo [7]; po, 5 mg/kg): 60 min
inhibition at 10 µM (CYP2C9): 33.1%
inhibition at 10 µM (CYP2C8): 39.7%
inhibition at 10 µM (CYP2A6): 16.5%
inhibition at 10 µM (CYP2E1): 0%
inhibition at 10 µM (CYP2C19): 65.3%
inhibition at 10 µM (CYP1A2): 0%
inhibition at 10 µM (CYP2D6): 4.4%
inhibition at 10 µM (CYP2B6): 0%
Remaining Percentage with NADPH, 0 min ([8]; 0 h): 100.00%
Remaining Percentage with NADPH, 15 min ([8]; 0.25 h): 93.28%
Remaining Percentage with NADPH, 30 min ([8]; 0.5 h): 79.18%
Remaining Percentage with NADPH, 45 min ([8]; 0.75 h): 71.86%
Remaining Percentage with NADPH, 60 min ([8]; 1 h): 65.13%
efflux ratio at 2 h, 5 μM (in vitro [9]; Caco-2, pH 7.4, Efflux Ratio): > 1.06
recovery at 2 h, 5 μM (in vitro [9]; Caco-2, pH 7.4, Recovery (%) BL-AP): 63.4%
Efflux Ratio (Caco-2 cell line): 0.71
Recovery (%) BL-AP (Caco-2 cell line): 58.07%
inhibition at 10 µM (CYP3A4; 107 at 10 μM, either midazolam or testosterone as substrate, read-out: inhibition of CYP 3A4): 30%
inhibition at 10 µM (CYP3A4; at 10 μM, midazolam as substrate, read-out: % Inhibition 3A4 (midazolam)): 30.4%
inhibition at 10 µM (CYP3A4; at 10 μM, testosterone as substrate, read-out: % Inhibition 3A4 (testosterone)): 30.5%
IC50 (CYP3A4; both substrates (midazolam, testosterone), tested 10 nM to 50 μM, read-out: CYP 3A4 IC50): > 50 µM
half-life at 2 μM [10]: 92.5 min
IC50 at 3 days (in vitro [11]): > 30 µM
half-life (in vivo [12]): ~420 min
Tmax (in vivo [12]; po, 5 mg/kg): 1 h
Isoniazid MIC shift (Mtb): ++ (4-8-fold ++)
t1/2 Lung PO (Lung tissue distribution; PO 5 mg/kg, lung, 5 mg/kg): 5.82 h
half-life (Lung tissue distribution; male, CD-1, mouse, lung, iv, 1 mg/kg, t1/2 Lung IV, IV 1 mg/kg): 413 min
half-life (Lung tissue distribution; male, CD-1, mouse, lung, po, 5 mg/kg, t1/2 Lung PO, PO 5 mg/kg): 348 min
Kp (Lung tissue distribution; male, CD-1, mouse, lung/plasma, po, 5 mg/kg): 1.74

Reference: patent US11072633B2 (priority 2016, dated 2021)
